# Data reported in patent publication US11739070B2, “C5A receptor modulators” (IDORSIA PHARMACEUTICALS LTD, priority 2018, dated 2023).
# Molecular target: T1, C5AR1 (Homo sapiens, UniProt P21730)
# T1 construct: host or cells: CHO-K1
# T1 sequence (P21730 1-350): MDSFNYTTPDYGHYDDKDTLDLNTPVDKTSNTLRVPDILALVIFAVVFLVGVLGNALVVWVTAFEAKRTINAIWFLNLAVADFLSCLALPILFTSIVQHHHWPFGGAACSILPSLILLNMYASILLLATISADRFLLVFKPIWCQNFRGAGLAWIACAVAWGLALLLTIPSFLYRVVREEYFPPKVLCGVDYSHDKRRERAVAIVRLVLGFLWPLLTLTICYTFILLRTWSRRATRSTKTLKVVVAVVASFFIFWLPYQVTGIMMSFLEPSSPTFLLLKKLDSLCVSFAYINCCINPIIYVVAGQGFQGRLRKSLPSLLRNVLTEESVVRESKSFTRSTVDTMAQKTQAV
# Assay: hC5a DISCO IC50 assay (PathHunter beta-arrestin, antagonist mode)
# Assay type: cell-based
# Details: CHO-K1 C5AR1 beta-arrestin cell line; antagonist vs 1-10 nM C5a agonist; geometric mean values; read-out: C5aR IC50
# Outline: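 Antagonist added first, then 1-10 nM C5a agonist; cells incubated 1.5 h at 37 °C. Beta-arrestin signal developed with PathHunter detection reagent, 45 min at RT. IC50 in nmol/l from serial antagonist dilutions, reported as geometric mean of several measurements.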
row,SMILES,IC50 [nM]
1,"Cc1cccc(F)c1N1CC[C@@H](n2c(=O)n(Cc3ccccc3C(F)(F)F)c3c(OCCN(C)C)nccc32)C1 [Example 120, 4-(2-Dimethylamino-ethoxy)-1-[(R)-1-(2-fluoro-6-methyl-phenyl)-pyrrolidin-3-yl]-3-(2-trifluoromethyl-benzyl)-1,3-dihydro-imidazo[4,5-c]pyridin-2-one]",659
2,"Cc1cccc(F)c1N1CC[C@@H](n2c(=O)n(Cc3ccccc3C(F)(F)F)c3c(OCCN4CCOCC4)nccc32)C1 [Example 121, 1-[(R)-1-(2-Fluoro-6-methyl-phenyl)-pyrrolidin-3-yl]-4-(2-morpholin-4-yl-ethoxy)-3-(2-trifluoromethyl-benzyl)-1,3-dihydro-imidazo[4,5-c]pyridin-2-one]",270
3,"Cc1cccc(F)c1N1CC[C@@H](n2c(=O)n(Cc3ccccc3C(F)(F)F)c3c(OC4CCN(C(=O)OC(C)(C)C)CC4)nccc32)C1 [Example 122, 4-[1-[(R)-1-(2-Fluoro-6-methyl-phenyl)-pyrrolidin-3-yl]-2-oxo-3-(2-trifluoromethyl-benzyl)-2,3-dihydro-1H-imidazo[4,5-c]pyridin-4-yloxy]-piperidine-1-carboxylic acid tert-butyl ester]",509
4,"Cc1cccc(F)c1N1CC[C@@H](n2c(=O)n(Cc3ccccc3C(F)(F)F)c3c(N(C)CCO)nccc32)C1 [Example 123, 1-[(R)-1-(2-Fluoro-6-methyl-phenyl)-pyrrolidin-3-yl]-4-[(2-hydroxy-ethyl)-methyl-amino]-3-(2-trifluoromethyl-benzyl)-1,3-dihydro-imidazo[4,5-c]pyridin-2-one]",42
5,"Cc1cccc(F)c1N1CC[C@@H](n2c(=O)n(Cc3ccccc3C(F)(F)F)c3c(OC4CCNCC4)nccc32)C1 [Example 124, 1-[(R)-1-(2-Fluoro-6-methyl-phenyl)-pyrrolidin-3-yl]-4-(piperidin-4-yloxy)-3-(2-trifluoromethyl-benzyl)-1,3-dihydro-imidazo[4,5-c]pyridin-2-one]",5220
6,"Cc1cccc(F)c1N1CC[C@@H](n2c(=O)n(Cc3ccccc3C(F)(F)F)c3c(OCC4COC(C)(C)O4)nccc32)C1 (stereo partly drawn) [Example 125, 4-(2,2-Dimethyl-[1,3]dioxolan-4-ylmethoxy)-1-[(R)-1-(2-fluoro-6-methyl-phenyl)-pyrrolidin-3-yl]-3-(2-trifluoromethyl-benzyl)-1,3-dihydro-imidazo[4,5-c]pyridin-2-one]",124
7,"COc1cccc2c1n(Cc1ccccc1C(F)(F)F)c(=O)n2[C@@H]1CCN(c2c(F)cccc2CC=O)C1 [Example 126, (3-Fluoro-2-{(R)-3-[4-methoxy-2-oxo-3-(2-trifluoromethyl-benzyl)-2,3-dihydro-benzoimidazol-1-yl]-pyrrolidin-1-yl}-phenyl)-acetaldehyde]",20
8,"Cc1cccc(F)c1N1CC[C@@H](n2c(=O)n(Cc3ccccc3C(F)(F)F)c3c(OC4COC4)nccc32)C1 [Example 127, 1-[(R)-1-(2-Fluoro-6-methyl-phenyl)-pyrrolidin-3-yl]-4-(oxetan-3-yloxy)-3-(2-trifluoromethyl-benzyl)-1,3-dihydro-imidazo[4,5-c]pyridin-2-one]",17
9,"Cc1cccc(F)c1N1CC[C@@H](n2c(=O)n(Cc3ccccc3C(F)(F)F)c3c(OCC(O)CO)nccc32)C1 (stereo partly drawn) [Example 128, 4-(2,3-Dihydroxy-propoxy)-1-[(R)-1-(2-fluoro-6-methyl-phenyl)-pyrrolidin-3-yl]-3-(2-trifluoromethyl-benzyl)-1,3-dihydro-imidazo[4,5-c]pyridin-2-one]",207
10,"Cc1cccc(F)c1N1CC[C@@H](n2c(=O)n(Cc3ccccc3C(F)(F)F)c3c(N4CCOCC4)nccc32)C1 [Example 129, 1-[(R)-1-(2-Fluoro-6-methyl-phenyl)-pyrrolidin-3-yl]-4-morpholin-4-yl-3-(2-trifluoromethyl-benzyl)-1,3-dihydro-imidazo[4,5-c]pyridin-2-one]",53
11,"Cc1cccc(F)c1N1CC[C@@H](n2c(=O)n(Cc3ccccc3C(F)(F)F)c3c(OC4CCN(C)C4)nccc32)C1 (stereo partly drawn) [Example 130, 1-[(R)-1-(2-Fluoro-6-methyl-phenyl)-pyrrolidin-3-yl]-4-(1-methyl-pyrrolidin-3-yloxy)-3-(2-trifluoromethyl-benzyl)-1,3-dihydro-imidazo[4,5-c]pyridin-2-one]",3910
12,"COc1cccc2c1n(Cc1ccccc1C(F)(F)F)c(=O)n2[C@@H]1CCN(c2c(F)cccc2CCN2CCOCC2)C1 [Example 131, 1-{(R)-1-[2-Fluoro-6-(2-morpholin-4-yl-ethyl)-phenyl]-pyrrolidin-3-yl}-4-methoxy-3-(2-trifluoromethyl-benzyl)-1,3-dihydro-benzoimidazol-2-one]",53
13,"COc1cccc2c1n(Cc1ccccc1C(F)(F)F)c(=O)n2[C@@H]1CCN(c2c(F)cccc2CN2CCN(C)CC2)C1 [Example 132, 1-{(R)-1-[2-Fluoro-6-(4-methyl-piperazin-1-ylmethyl)-phenyl]-pyrrolidin-3-yl}-4-methoxy-3-(2-trifluoromethyl-benzyl)-1,3-dihydro-benzoimidazol-2-one]",314
14,"COc1cccc2c1n(Cc1ccccc1C(F)(F)F)c(=O)n2[C@@H]1CCN(c2c(F)cccc2CN2CCCCC2)C1 [Example 133, 1-[(R)-1-(2-Fluoro-6-piperidin-1-ylmethyl-phenyl)-pyrrolidin-3-yl]-4-methoxy-3-(2-trifluoromethyl-benzyl)-1,3-dihydro-benzoimidazol-2-one]",70
15,"COc1cccc2c1n(Cc1ccccc1C(F)(F)F)c(=O)n2[C@@H]1CCN(c2c(F)cccc2CN2CCC(O)CC2)C1 [Example 134, 1-{(R)-1-[2-Fluoro-6-(4-hydroxy-piperidin-1-ylmethyl)-phenyl]-pyrrolidin-3-yl}-4-methoxy-3-(2-trifluoromethyl-benzyl)-1,3-dihydro-benzoimidazol-2-one]",2260
16,"COc1cccc2c1n(Cc1ccccc1C(F)(F)F)c(=O)n2[C@@H]1CCN(c2c(F)cccc2CN2CCNCC2)C1 [Example 135, 1-[(R)-1-(2-Fluoro-6-piperazin-1-ylmethyl-phenyl)-pyrrolidin-3-yl]-4-methoxy-3-(2-trifluoromethyl-benzyl)-1,3-dihydro-benzoimidazol-2-one]",5760
17,"COc1cccc2c1n(Cc1ccccc1C(F)(F)F)c(=O)n2[C@@H]1CCN(c2c(F)cccc2CN2CCC(N(C)C)CC2)C1 [Example 136, 1-{(R)-1-[2-(4-Dimethylamino-piperidin-1-ylmethyl)-6-fluoro-phenyl]-pyrrolidin-3-yl}-4-methoxy-3-(2-trifluoromethyl-benzyl)-1,3-dihydro-benzoimidazol-2-one]",1590
18,"COc1cccc2c1n(Cc1ccccc1C(F)(F)F)c(=O)n2[C@@H]1CCN(c2c(F)cccc2CN2CCC(OC)CC2)C1 [Example 137, 1-{(R)-1-[2-Fluoro-6-(4-methoxy-piperidin-1-ylmethyl)-phenyl]-pyrrolidin-3-yl}-4-methoxy-3-(2-trifluoromethyl-benzyl)-1,3-dihydro-benzoimidazol-2-one]",133
19,"COc1cccc2c1n(Cc1ccccc1C(F)(F)F)c(=O)n2[C@@H]1CCN(c2c(F)cccc2CN2CCC(OC)C2)C1 (stereo partly drawn) [Example 138, 1-{(R)-1-[2-Fluoro-6-(3-methoxy-pyrrolidin-1-ylmethyl)-phenyl]-pyrrolidin-3-yl}-4-methoxy-3-(2-trifluoromethyl-benzyl)-1,3-dihydro-benzoimidazol-2-one]",156
